Results published in PubChem BioAssay AID2060616 (Molecular Pharmacology Branch, DTP, NCI, 2025).
pIC50: −log10 of the molar value. Where “and” joins values, the source holds several entries; their conditions need not be identical. Equal entries are not always repeated.

System: 377384-186-R-J1-PDC complex spheroid viability
Assay: Anticancer human tumor 377384-186-R-J1-PDC patient-derived pancreatic carcinoma cell line growth inhibition [CLK]
Details: for viability, T/C: stronger effect = lower value
Text: A high-throughput screen of multi-cell type tumor spheroids was designed to identify active combinations of […] and targeted small molecules. Complex spheroids include a stromal component modeled by human endothelial cells (HUVEC) and fibroblasts modeled by human mesenchymal stem cells (MSCs). The concentration ranges selected for each drug and investigational agent were based upon clinically achievable concentrations if the clinical Cmax of the agent was known.
Compounds. The drugs and investigational agents: cirtuvivint (SM08502; NSC835563), CC-671 (NSC850746), vemurafenib (NSC761431), tapotoclax (NSC804041), sotorasib (NSC818433), adagrasib (NSC831453), MRTX-1133 (NSC836407), BAY2416964 (NSC825713), copanlisib (NSC816437), inavolisib (NSC800729), abemaciclib (NSC768073), osimertinib (NSC779217), entinostat (NSC756642), eltanexor (KPT-8602, NSC794443), venetoclax (NSC766270), ceralasertib (NSC777638), bortezomib (NSC756655), olaparib (NSC753686), talazoparib (NSC767125), alisertib (NSC759677), peposertib (NSC802822), gemcitabine (NSC613327), 5-fluorouracil (NSC19893), SN-38 (NSC673596), oxaliplatin (NSC266046), paclitaxel (NSC125973), and doxorubicin (NSC123127), were obtained from the National Cancer Institute (NCI) Developmental Therapeutics Program Chemical Repository. The FDA-approved anticancer drug set is available from the Developmental Therapeutics Program at https://dtp.cancer.gov/organization/dscb/obtaining/available plates.htm. […] The stock solutions were prepared in dimethyl sulfoxide (DMSO, Sigma-Aldrich, St. Louis, MO, cat. D2650), except for the platinum complexes which were prepared in saline (Quality Biological, Gaithersburg, MD, cat. 114-055-101), at 800-fold the tested concentration and stored at -70 degrees C prior to their use. All drugs and investigational agents were tested over a range starting from a high concentration at or near the clinical Cmax and decreasing in half-log increments. If the clinical Cmax for an agent had not been determined, the highest concentration tested was 10 microM.
Cell Culture. All cells were maintained in an incubator at 37 degrees C and 5% CO2 with 95% humidity. The PDC lines were cultured according to standard operating procedures established by the NCI PDMR. Briefly, all PDCs were thawed and cultured in Matrigel-coated flasks prepared with a working solution of 1X Ham's F-12 nutrient mix, without supplementation (Invitrogen, Waltham, MA, cat. 11765054), 100 U/mL penicillin-streptomycin (Invitrogen, cat. 15140122), and 2.5% Matrigel (Corning Inc., Corning, NY, cat. 354248) for the first three passages. The 947758-054-R-J2-PDC line was cultured in 6B/Colon 1A media, which includes advanced DMEM/F-12 (Thermo Fisher Scientific, cat. 12634028), 10 mM HEPES (Thermo Fisher Scientific, cat. 15630080), 1X GlutaMAX supplement (Thermo Fisher Scientific, cat. 35050061), 0.1 mg/mL primocin (InvivoGen, cat. ant-pm-2), 10% defined fetal bovine serum, heat inactivated (HyClone Laboratories Inc., cat. SH30070.03HI), 1.25 mM N-Acetyl-L-cysteine (Sigma-Aldrich, cat. A9165), 10 mM nicotinamide (Sigma-Aldrich, cat. N0636), 1X B-27 supplement (Thermo Fisher Scientific, cat. 17504044), 1X N-2 supplement (Thermo Fisher Scientific, cat. 17502048), and 10 microM Y-27632 dihydrochloride (Tocris Bioscience, cat. 1254). The 876862-298-R-J1-PDC was cultured in 6E media, which includes all 6B/Colon 1A media components plus 50% L-WRN conditioned media (ATCC, cat. CRL-3276), 50 ng/mL recombinant human EGF recombinant protein (hEGF; Thermo Fisher Scientific, cat. PHG0311), 10 ng/mL recombinant human fibroblast growth factor 10 (hGFG-10; PeproTech, cat. 100-26), 1 ng/mL recombinant human fibroblast growth factor 2 (hFGF-2; PeproTech, cat. 100-18B), and 1 µM prostaglandin E2 (PGE2; Tocris, cat. 2296). The 227483-062-R1-J1-PDC line was cultured in Panc media, containing all 6E components except hFGF-2, with the addition of 500 nM SB-431542 (Selleckchem, cat. S1067) and 10 nM gastrin (Tocris, cat. 3006). […]
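Also: spheroids exposed to agents for 7 days before reading.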
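For viability, T/C in this document: luminescence signal used as a stand-in for viable cells.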

With `Nc1ccccc1NC(=O)c1ccc(CNC(=O)OCc2cccnc2)cc1` the viability, T/C (compound 0.0316 µM) was 85.8% and 79.5%, the viability, T/C (compound 0.1 µM) was 85.5% and 77.1% and the viability, T/C (compound 0.316 µM) was 65.3% and 57.9%. For the same compound, the viability, T/C (compound 1 µM) was 35.8% and 30.4%, the viability, T/C (compound 3.16 µM) was 13.3% and 12.8% and the viability, T/C (compound 10 µM) was 2.14% and 1.31%. The pIC50 (curve of compound) was 6.23 and 6.34.

For `NC(=O)C(=Cn1cnc(-c2cc(C(F)(F)F)cc(C(F)(F)F)c2)n1)c1cncnc1` + CN1CCN(c2cc(C(=O)Nc3cc4cc(-c5cnn(C)c5)ccc4cn3)ccn2)CC1, the pIC50 (curve of first compound, second compound 0.0316 µM) was 7.00, the pIC50 (curve of first compound, second compound 0.1 µM) was 7.30 and the pIC50 (curve of first compound, second compound 0.316 µM) was > 8.02. For the same compound, the pIC50 (curve of first compound, second compound 1 µM) was > 8.02, the pIC50 (curve of first compound, second compound 3.16 µM) was > 8.02 and the pIC50 (curve of first compound, second compound 10 µM) was > 8.02. For the same compound, the viability, T/C (second compound 0.0316 µM, first compound 0.00949 µM) was 81.1%, the viability, T/C (second compound 0.0316 µM, first compound 0.03 µM) was 76% and the viability, T/C (second compound 0.0316 µM, first compound 0.0949 µM) was 50.1%. The viability, T/C (second compound 0.0316 µM, first compound 0.3 µM) was 21.7%, the viability, T/C (second compound 0.0316 µM, first compound 0.949 µM) was 5.88% and the viability, T/C (second compound 0.0316 µM, first compound 3 µM) was 2%. The viability, T/C (second compound 0.1 µM, first compound 0.00949 µM) was 87.6%, the viability, T/C (second compound 0.1 µM, first compound 0.03 µM) was 63.4% and the viability, T/C (second compound 0.1 µM, first compound 0.0949 µM) was 33.6%. For the same compound, the viability, T/C (second compound 0.1 µM, first compound 0.3 µM) was 14.3%, the viability, T/C (second compound 0.1 µM, first compound 0.949 µM) was 3.11% and the viability, T/C (second compound 0.1 µM, first compound 3 µM) was 1.52%. The viability, T/C (second compound 0.316 µM, first compound 0.00949 µM) was 21.2%, the viability, T/C (second compound 0.316 µM, first compound 0.03 µM) was 15% and the viability, T/C (second compound 0.316 µM, first compound 0.0949 µM) was 8.59%. The viability, T/C (second compound 0.316 µM, first compound 0.3 µM) was 1.27%, the viability, T/C (second compound 0.316 µM, first compound 0.949 µM) was 1.18% and the viability, T/C (second compound 0.316 µM, first compound 3 µM) was 2%. The viability, T/C (second compound 1 µM, first compound 0.00949 µM) was 0.39%, the viability, T/C (second compound 1 µM, first compound 0.03 µM) was 0.58% and the viability, T/C (second compound 1 µM, first compound 0.0949 µM) was 1.29%. It also gave a viability, T/C (second compound 1 µM, first compound 0.3 µM) of 1.21%, a viability, T/C (second compound 1 µM, first compound 0.949 µM) of 2.26% and a viability, T/C (second compound 1 µM, first compound 3 µM) of 2.39%. It also gave a viability, T/C (second compound 3.16 µM, first compound 0.00949 µM) of 0.7%, a viability, T/C (second compound 3.16 µM, first compound 0.03 µM) of 1.97% and a viability, T/C (second compound 3.16 µM, first compound 0.0949 µM) of 1.72%. It also gave a viability, T/C (second compound 3.16 µM, first compound 0.3 µM) of 1.71%, a viability, T/C (second compound 3.16 µM, first compound 0.949 µM) of 1.82% and a viability, T/C (second compound 3.16 µM, first compound 3 µM) of 2.81%. For the same compound, the viability, T/C (second compound 10 µM, first compound 0.00949 µM) was 0.61%, the viability, T/C (second compound 10 µM, first compound 0.03 µM) was 0.97% and the viability, T/C (second compound 10 µM, first compound 0.0949 µM) was 1.5%. For the same compound, the viability, T/C (second compound 10 µM, first compound 0.3 µM) was 0.79%, the viability, T/C (second compound 10 µM, first compound 0.949 µM) was 0.88% and the viability, T/C (second compound 10 µM, first compound 3 µM) was 0.91%.
